Measurements published in BindingDB's records for doi:10.1021/jm00020a011 (Zeneca Pharmaceuticals, 1995).

Test: Binding affinity towards Acetylcholinesterase

## CC(C)[C@H](NC(=O)[C@@H]1CCCN1C(=O)[C@@H](NC(=O)c1ccc(C(=O)NS(=O)(=O)c2ccc(Cl)cc2)cc1)C(C)C)C(=O)c1nc2cc(C(N)=O)ccc2o1 [2-{(S)-2-[((S)-1-{(S)-2-[4-(4-Chloro-benzenesulfonylaminocarbonyl)-benzoylamino]-3-methyl-butyryl}-pyrrolidine-2-carbonyl)-amino]-3-methyl-butyryl}-benzooxazole-5-carboxylic acid amide]
  Ki: > 2000 µM
